Like-named read-outs stand apart in the source and are kept apart here.
Tested on: SCLC strain SHP-77
Assay: MTT assay for cell survival, SCLC SHP-77 in vitro
Format: cell-based, human
Details: ED50 for killing of SCLC strain SHP-77 in vitro, 4 days, 0 = no detectable activity

| Compound | IC50 (read-out: SCLC SHP-77 IC50) [µM] | IC50 (read-out: SHP-77 In vitro IC50) [µM] |
| --- | --- | --- |
| CN1CCN(CCCNC(=O)C(Cc2ccc(OCc3c(Cl)cccc3Cl)cc2)NC(=O)c2c3ccccc3nc3ccccc23)CC1 (stereo not drawn) [Analog M-1700, Acrc-OC2Y-Amp] | 7.3 |  |
| CC1(C)CC(NC(=O)C(Cc2c[nH]c3ccccc23)NC(=O)C(N)CCC(=O)O)CC(C)(C)N1 (stereo not drawn) [Analog M-1120, Glu-Trp-Atmp] |  | > 60 |
| CC1(C)CC(NC(=O)C(Cc2ccc(F)cc2)NC(=O)C=Cc2ccoc2)CC(C)(C)N1 (stereo not drawn) [Analog M-1152, 3-Fa-PFF-Atmp] |  | > 60 |
| O=C(C=Cc1cc(C(F)(F)F)cc(C(F)(F)F)c1)NC(Cc1ccc(I)cc1)C(=O)N1CCN(c2ccccn2)CC1 (stereo not drawn) [Analog M-1252, Tf2c-PIF-Pypz] |  | > 60 |
| CC1(C)CC(NC(=O)C(NC(=O)c2ccccn2)C2Cc3ccccc3C2)CC(C)(C)N1 (stereo not drawn) [Analog M-1354, Pic-Igl-Atmp] | > 60 |  |
| CC1(C)CC(NC(=O)C(Cc2ccc(-c3ccccc3)cc2)NC(=O)C(Oc2ccc(Cl)cc2)Oc2ccc(Cl)cc2)CC(C)(C)N1 (stereo not drawn) [Analog M-1766, Bcpoa-Bip-Atmp] | 2 |  |
| O=C(CC12CC3CC(CC(C3)C1)C2)N[C@@H](Cc1ccc(OCc2c(Cl)cccc2Cl)cc1)C(=O)N1CCN(c2ncccn2)CC1 [Analog M-1672, Aaa-OC2Y-Pmpz] | > 50 |  |
| CCCCCCC(O)CC=CCCCCCCCC(=O)NC(Cc1ccc(C#N)cc1)C(=O)NC1CC(C)(C)NC(C)(C)C1 (stereo not drawn) [Analog M-1478, Rio-PCNF-Atmp] | 14 |  |
| CC1(C)CC(NC(=O)C(NC(=O)C=Cc2c(F)c(F)c(F)c(F)c2F)C(c2ccccc2)c2ccccc2)CC(C)(C)N1 (stereo not drawn) [Analog M-1150, F5c-Dip-Atmp] |  | 5 |
| CC1(C)CC(NC(=O)[C@@H](Cc2ccc(OCc3c(Cl)cccc3Cl)cc2)NC(=O)C(=Cc2ccccc2)c2ccccc2)CC(C)(C)N1 [Analog M-1682, Pcn-D-OC2Y-Atmp] | 1.8 |  |
| CC1(C)CC(NC(=O)C(Cc2ccc(OCc3c(Cl)cccc3Cl)cc2)NC(=O)C(C)(C)C)CC(C)(C)N1 (stereo not drawn) [Analog M-1736, Piva-OC2Y-Atmp] | 13 |  |
| O=C(C=Cc1c(F)c(F)c(F)c(F)c1F)NC(C(=O)N1CCN(Cc2c(F)c(F)c(F)c(F)c2F)CC1)C1Cc2ccccc2C1 (stereo not drawn) [Analog M-1690, F5c-Igl-Pipz(F5b)] | 25 |  |
| O=C(N[C@@H](Cc1ccc(OCc2c(Cl)cccc2Cl)cc1)C(=O)N1CCN(c2ncccn2)CC1)C(=Cc1ccccc1)c1ccccc1 [Analog M-1670, Pcn-OC2Y-Pmpz] | 50 |  |
| CC1(C)CC(NC(=O)C(Cc2ccc(F)cc2)NC(=O)C=Cc2c(F)c(F)c(F)c(F)c2F)CC(C)(C)N1 (stereo not drawn) [Analog M-1140, F5c-PFF-Atmp] |  | 15 |
| CC1(C)CC(NC(=O)C(NC(=O)C(=Cc2ccccc2)c2ccccc2)C2Cc3ccccc3C2)CC(C)(C)N1 (stereo not drawn) [Analog M-1684, Pcn-Igl-Atmp] | 4.2 |  |
| CN1CCN(C(=O)C(Cc2ccc(F)cc2)NC(=O)C=Cc2c(F)c(F)c(F)c(F)c2F)CC1 (stereo not drawn) [Analog M-1158, F5c-PFF-Mpz] |  | 28 |
| CC1(C)CC(NC(=O)C2Cc3ccccc3CN2C(=O)C(=Cc2ccccc2)c2ccccc2)CC(C)(C)N1 (stereo not drawn) [Analog M-1770, Pcn-Tic-Atmp] | 5.4 |  |
| Cc1ccc(CSC(C)(C)C(NC(=O)C(C2CCCCC2)C2CCCCC2)C(=O)NC2CC(C)(C)NC(C)(C)C2)cc1 (stereo not drawn) [Analog M-1514, Dca-Pen(Mbzl)-Atmp] | 7.3 |  |
| CC1(C)CC(NC(=O)[C@H](Cc2ccc(OCc3c(Cl)cccc3Cl)cc2)NC(=O)c2ccc(N)nc2)CC(C)(C)N1 [Analog M-1596, 6Ani-OC2Y-Atmp] | > 60 |  |
| O=C(N[C@H]1CN2CCC1CC2)C(Cc1ccc(OCc2c(Cl)cccc2Cl)cc1)NC(=O)C(c1ccccc1)C1CCCCC1 (single isomer, unassigned) [M-1548 #2] | 13 |  |
| O=C(N[C@@H](Cc1ccc(OCc2c(Cl)cccc2Cl)cc1)C(=O)N1CCN(C/C=C/c2ccccc2)CC1)C(=Cc1ccccc1)c1ccccc1 [Analog M-1654, Pcn-OC2Y-tCip] | > 60 |  |
| O=C(c1ccccc1)c1ccc2n1CCC2C(=O)N[C@@H](Cc1ccc(OCc2c(Cl)cccc2Cl)cc1)C(=O)N1CCN(C/C=C/c2ccccc2)CC1 (stereo partly drawn) [Analog M-1666, Ktlc-OC2Y-tCip] | > 60 |  |
| CC1CN(C(=O)C(Cc2ccc(F)cc2)NC(=O)C=Cc2c(F)c(F)c(F)c(F)c2F)CC(C)N1 (stereo not drawn) [Analog M-1160, F5c-PFF-Dmpz] |  | 24 |
| O=C(C=Cc1c(F)c(F)c(F)c(F)c1F)NC(Cc1ccc2ccccc2c1)C(=O)N1CCC(N2CCCCC2)CC1 (stereo not drawn) [Analog M-1250, F5c-Nal-Pipp] |  | 7.6 |
| O=C(C=Cc1c(F)c(F)c(F)c(F)c1F)NC(Cc1ccc(OCc2c(Cl)cccc2Cl)cc1)C(=O)N1CCN(Cc2c(F)c(F)c(F)c(F)c2F)CC1 (stereo not drawn) [Analog M-1732, F5c-OC2Y-Pipz(F5b)] | 24 |  |
| CC1(C)CC(NC(=O)[C@H](Cc2ccc(C#N)cc2)NC(=O)CCCc2ccc(N(CCCl)CCCl)cc2)CC(C)(C)N1 [Analog M-1500, Chl-PCNF-Atmp] | 25 |  |
| CC1(C)CC(NC(=O)C(Cc2ccc(-c3ccccc3)cc2)NC(=O)Cc2ccc(-c3ccccc3)cc2)CC(C)(C)N1 (stereo not drawn) [Analog M-1796, Bipa-Bip-Atmp] | 1.5 |  |

| Compound | IC50 (read-out: SCLC SHP-77 IC50) [µM] | IC50 (read-out: SHP-77 In vitro IC50) [µM] |
| --- | --- | --- |
| O=C(C=Cc1c(F)c(F)c(F)c(F)c1F)NC1(C(=O)N(Cc2ccccn2)Cc2ccccn2)Cc2ccccc2C1 [Analog M-1218, F5c-Aic-Dpic] |  | 14 |
| CC(=O)Nc1nc(C)c(S(=O)(=O)N[C@@H](Cc2ccc(OCc3c(Cl)cccc3Cl)cc2)C(=O)NC2CC(C)(C)NC(C)(C)C2)s1 [Analog M-1628, Amts-OC2Y-Atmp] | 45 |  |
| CO[C@@](C(=O)NC(Cc1ccc(OCc2c(Cl)cccc2Cl)cc1)C(=O)NC1CC(C)(C)NC(C)(C)C1)(c1ccccc1)C(F)(F)F (stereo partly drawn) [Analog M-1752, (R)-MTPA-OC2Y-Atmp] | 4 |  |
| CN1CCN(CCCNC(=O)[C@H](Cc2ccc(OCc3c(Cl)cccc3Cl)cc2)NC(=O)C23CC4CC(CC(C4)C2)C3)CC1 [Analog M-1676, Aca-OC2Y-Amp] | 6.2 |  |
| O=C(C=Cc1c(F)c(F)c(F)c(F)c1F)NC(Cc1c(F)c(F)c(F)c(F)c1F)C(=O)NC1CCN(Cc2ccccc2)CC1 (stereo not drawn) [Analog M-1182, F5c-F5F-Abzp] |  | 19.5 |
| CC1(C)CC(NC(=O)C(Cc2ccc(OCc3c(Cl)cccc3Cl)cc2)NC(=O)C=Cc2ccc(-c3ccccc3)cc2)CC(C)(C)N1 (stereo not drawn) [Analog M-1776, Pcin-OC2Y-Atmp] | 1.4 |  |
| Cc1ccccc1C=CC(=O)NC(Cc1ccc(OCc2c(Cl)cccc2Cl)cc1)C(=O)NC1CC(C)(C)NC(C)(C)C1 (stereo not drawn) [Analog M-1778, Mca-OC2Y-Atmp] | 1.5 |  |
| O=C(C=Cc1c(F)c(F)c(F)c(F)c1F)NC(Cc1ccc(F)cc1)C(=O)N1CCN(C(c2ccccc2)c2ccc(Cl)cc2)CC1 (stereo not drawn) [Analog M-1202, F5c-PFF-Cbp] |  | 30 |
| CC1CN(C(=O)C(Cc2ccc(I)cc2)NC(=O)C=Cc2c(F)c(F)c(F)c(F)c2F)CC(C)N1 (stereo not drawn) [Analog M-1254, F5c-PIF-Dmpz] |  | 10 |
| CC1(C)CC(NC(=O)[C@H](Cc2ccc(OCc3c(Cl)cccc3Cl)cc2)NC(=O)C(Cl)Cl)CC(C)(C)N1 [Analog M-1692, Dcla-OC2Y-Atmp] | 7.2 |  |
| CN1CCN(CCCNC(=O)[C@H](Cc2ccc(OCc3c(Cl)cccc3Cl)cc2)NC(=O)C(=Cc2ccccc2)c2ccccc2)CC1 [Analog M-1658, Pcn-OC2Y-Amp] | 10 |  |
| CN(C(=O)C=Cc1c(F)c(F)c(F)c(F)c1F)C(Cc1ccccc1)C(=O)NC1CC(C)(C)NC(C)(C)C1 (stereo not drawn) [Analog M-1148, F5c-NMF-Atmp] |  | 15.5 |
| O=C(N[C@@H](Cc1ccc(OCc2c(Cl)cccc2Cl)cc1)C(=O)NC1CCN(Cc2ccccc2)CC1)C(=Cc1ccccc1)c1ccccc1 [Analog M-1660, Pcn-OC2Y-Abzp] | 31 |  |
| CC1CN(C(=O)C(Cc2ccc(OCc3c(Cl)cccc3Cl)cc2)NC(=O)C(=Cc2ccccc2)c2ccccc2)CC(C)N1Cc1ccccc1 (stereo not drawn) [Analog M-1662, Pcn-OC2Y-cDmbp] | 20 |  |
| CC1(C)CC(NC(=O)C(Cc2ccc(OCc3c(Cl)cccc3Cl)cc2)NC(=O)C(F)(F)C(F)(F)C(F)(F)C(=O)O)CC(C)(C)N1 (stereo not drawn) [M-1098 #1, CHFB-OC2Y-Atmp] |  | > 60 |
| COc1ccc2c(CC(=O)NC(Cc3ccc(OCc4c(Cl)cccc4Cl)cc3)C(=O)NC3CC(C)(C)NC(C)(C)C3)cc(=O)oc2c1 (stereo not drawn) [Analog M-1744, Mcoa-OC2Y-Atmp] | 7.1 |  |
| O=C(C=Cc1cccnc1)NC(Cc1ccc(F)cc1)C(=O)N1CCN(c2ccc(Cl)cc2)CC1 (stereo not drawn) [Analog M-1212, Pya-PFF-Cpp] |  | 10 |
| CC1(C)CC(NC(=O)C(Cc2ccc(OCc3c(Cl)cccc3Cl)cc2)NC(=O)C=Cc2ccccc2Cl)CC(C)(C)N1 (stereo not drawn) [Analog M-1652, 2Ccn-OC2Y-Atmp] | 4.1 |  |
| CC1(C)CC(NC(=O)C(Cc2ccc(C#N)cc2)NC(=O)C=Cc2cc(F)cc(F)c2F)CC(C)(C)N1 (stereo not drawn) [Analog M-1504, F3c-PCNF-Atmp] | > 60 |  |
| C=CC(=O)NC(NC(=O)C=C)C(=O)NC(Cc1ccc(OCc2c(Cl)cccc2Cl)cc1)C(=O)NC1CC(C)(C)NC(C)(C)C1 (stereo not drawn) [Analog M-1718, Baaa-OC2Y-Atmp] | > 60 |  |
| COC(=O)CN1C(C)CN(C(=O)C(Cc2ccc(F)cc2)NC(=O)C=Cc2c(F)c(F)c(F)c(F)c2F)CC1C (stereo not drawn) [Analog M-1432, F5c-PFF-Dmmp] | 18 |  |
| CC1(C)CC(NC(=O)C(Cc2ccc(C(F)(F)F)cc2)NC(=O)C(=Cc2ccccc2)c2ccccc2)CC(C)(C)N1 (stereo not drawn) [Analog M-1790, Pcn-F3MF-Atmp] | 2.2 |  |
| Cc1nc2ccccc2c(C(=O)NC(Cc2ccc(OCc3c(Cl)cccc3Cl)cc2)C(=O)NC2CC(C)(C)NC(C)(C)C2)c1O (stereo not drawn) [Analog M-1716, Hmqc-OC2Y-Atmp] | 7.2 |  |
| CC1(C)CC(NC(=O)C(Cc2ccc(-c3ccccc3)cc2)NC(=O)C(=Cc2ccccc2)c2ccccc2)CC(C)(C)N1 (stereo not drawn) [Analog M-1764, Pcn-Bip-Atmp] | 2.5 |  |
| CC1(C)CC(NC(=O)C(NC(=O)C2CCn3c(C(=O)c4ccccc4)ccc32)C2Cc3ccccc3C2)CC(C)(C)N1 (stereo not drawn) [Analog M-1686, Ktlc-Igl-Atmp] | 14 |  |
| O=C(C=Cc1cccnc1)NC(Cc1ccc2ccccc2c1)C(=O)N1CCN(C(c2ccccc2)c2ccc(Cl)cc2)CC1 (stereo not drawn) [Analog M-1204, Pya-Nal-Cbp] |  | 7.5 |
| CC1(C)CC(NC(=O)C(Cc2ccc(OCc3c(Cl)cccc3Cl)cc2)NC(=O)Cc2ccc(-c3ccccc3)cc2)CC(C)(C)N1 (stereo not drawn) [Analog M-1782, Bipa-OC2Y-Atmp] | 3 |  |
